Columns and labels:
[1] = Plasma concentration of test compound in the receptor occupancy study; assay type: in vivo, Sprague Dawley rats; conditions: rat
Procedure: Twenty male Sprague Dawley rats (140-150 gms, Envigo) were maintained under controlled laboratory conditions on a 12 hr light cycle with ad lib access to food and water. On the morning of the experiment, rats were orally dosed with vehicle (1% (w/v) hydroxyethylcellulose, 0.25% (w/v) polysorbate 80, 0.05% (v/v) antifoam 1510-US in purified water) or appropriate doses of test compound (5 mL/kg, n=4 rats/group) using the same vehicle. Following a pre-determined survival time, plasma and adrenals were collected and frozen at −80° C. until analyzed. Frozen 20 μm sections of an adrenal from each animal were collected onto gelatin-coated slides and stored at −80° C. Autoradiography to detect AT2R occupancy (RO) was conducted under cold conditions using methods modified from F. M. J. Heemskerk, et al, Brain Research 677 (1995) 29-38. Total binding was defined by 0.3 nM ^125I-CGP42112 (selective AT2R agonist, Perkin Elmer, Inc) with the addition of 10 μM unlabeled AngII used to define non-specific binding. Following exposure to a phosphoimager plate (BAS TR2025, GE Healthcare), the bound radioactivity is calculated with use of MCID software (Imaging Research, Inc) and calibrated ^125I standards (American Radiolabeled Chemicals, Inc). The specific ligand binding for each animal is calculated by subtracting the non-specific binding from the total bound.

[2] = molecular target: T1, AT2R (Rattus norvegicus (Rat), UniProt P35351); experiment: AT2R ex vivo autoradiography receptor occupancy in rat adrenal sections after oral dosing; design: species or system Sprague Dawley rats; conditions: for IC50 / IC80: plasma concentration plotted vs % receptor occupancy, rat; for receptor occupancy at 0.3 mg/kg: oral dose 0.3 mg/kg; for receptor occupancy at 1 mg/kg: oral dose 1 mg/kg; for receptor occupancy at 3 mg/kg: oral dose 3 mg/kg; for receptor occupancy at 10 mg/kg: oral dose 10 mg/kg; for ex vivo IC50 (TER) / ex vivo IC80 (TER): rat receptor occupancy
T1 sequence (P35351 whole entry): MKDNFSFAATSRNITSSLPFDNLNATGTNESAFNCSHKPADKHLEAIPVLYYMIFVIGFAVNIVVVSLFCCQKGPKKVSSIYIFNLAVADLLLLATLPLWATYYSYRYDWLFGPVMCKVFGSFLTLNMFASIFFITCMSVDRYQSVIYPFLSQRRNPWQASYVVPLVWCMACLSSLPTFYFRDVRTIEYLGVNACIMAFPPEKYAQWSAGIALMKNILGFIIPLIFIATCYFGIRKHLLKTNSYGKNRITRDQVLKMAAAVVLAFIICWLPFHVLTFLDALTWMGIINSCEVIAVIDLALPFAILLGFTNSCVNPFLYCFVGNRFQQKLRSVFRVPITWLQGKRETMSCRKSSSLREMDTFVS
Procedure: The ability for a compound to engage its target may be measured by determining compound's receptor occupancy. An ex vivo autoradiography assay was conducted as described herein.
Twenty male Sprague Dawley rats (140-150 gms, Envigo) were maintained under controlled laboratory conditions on a 12 hr light cycle with ad lib access to food and water. […] Following a pre-determined survival time, plasma and adrenals were collected and frozen at −80° C. until analyzed. Frozen 20 μm sections of an adrenal from each animal were collected onto gelatin-coated slides and stored at −80° C. […] The specific ligand binding for each animal is calculated by subtracting the non-specific binding from the total bound.

[3] = molecular target: T1, AT2R; experiment: Inhibition of C21-induced increase in dermal blood flow (laser Doppler imaging); assay type: in vivo, Sprague Dawley rats

Row | SMILES | [plasma, free, nM] ([1]; oral dose 1 mg/kg) [nM] | IC50 [2] [nM] | IC80 [2] [nM] | receptor occupancy at 0.3 mg/kg ([2]; rat adrenal, read-out: % RO) [%] | receptor occupancy at 1 mg/kg ([2]; rat adrenal, read-out: % RO) [%] | receptor occupancy at 3 mg/kg ([2]; rat adrenal, read-out: % RO) [%] | receptor occupancy at 10 mg/kg ([2]; rat adrenal, read-out: % RO) [%] | ex vivo IC50 (TER) [2] [TER] | ex vivo IC80 (TER) [2] [TER] | further results
1 | O=C(N1CCC(CC(=O)N(c2ccccc2)c2ccccc2)(C(=O)O)CC1)N1CCc2ccccc21 [Example 3, 1-(indoline-1-carbonyl)-4-[2-oxo-2-(N-phenylanilino)ethyl]piperidine-4-carboxylic acid] | 1.74 | 0.821 | 3.34 | 37.8 | 61.9 | 83.5 | 90.5 | 0.375 | 1.525 | [plasma, free, nM] ([1]; oral dose 0.3 mg/kg): 0.482 nM; [plasma, free, nM] ([1]; oral dose 3 mg/kg): 5.99 nM; [plasma, free, nM] ([1]; oral dose 10 mg/kg): 15.8 nM; mode of action at AT2R (inhibition of C21-induced dermal blood flow) ([3]; AT2R agonist C21 intradermal): acting as a antagonist; inhibition at 0.3 mg/kg ([3]; dose 0.3 mg/kg, C21-induced increase in dermal blood flow): 49.6%; inhibition at 3 mg/kg ([3]; dose 3 mg/kg, C21-induced increase in dermal blood flow): 62.9%; inhibition at 10 mg/kg ([3]; C21-induced increase in dermal blood flow): 74.3%; inhibition at 10 mg/kg ([3]; second, unlabelled column under % Inhibition): 95.6%
2 | CN(C(=O)N1CCC(CC(=O)N(c2ccccc2)C(C2CC2)C2CC2)(C(=O)O)CC1)c1ccc(F)cc1 [Example 18, 4-[2-[N-(dicyclopropylmethyl)anilino]-2-oxo-ethyl]-1-[(4-fluorophenyl)-methyl-carbamoyl]piperidine-4-carboxylic acid] | 2.57 | 0.114 | 0.449 | 79.3 | 93.2 | 90.9 | 93 | 0.186 | 0.731 | [plasma, free, nM] ([1]; oral dose 0.01 mg/kg): 0.0298 nM; [plasma, free, nM] ([1]; oral dose 0.03 mg/kg): 0.224 nM; [plasma, free, nM] ([1]; oral dose 0.1 mg/kg): 0.476 nM; receptor occupancy at 0.01 mg/kg ([2]; rat adrenal, oral dose 0.01 mg/kg, read-out: % RO): 16.3%; receptor occupancy at 0.03 mg/kg ([2]; rat adrenal, oral dose 0.03 mg/kg, read-out: % RO): 65%; receptor occupancy at 0.1 mg/kg ([2]; rat adrenal, oral dose 0.1 mg/kg, read-out: % RO): 76.3%

— patent US12122750B2, “AT2R antagonists and uses thereof” (Eli Lilly and Company, priority 2022, dated 2024)
